Consider 28 compounds from patent publication US8044204B2, “8-methoxy-9H-isothiazolo[5,4-b]quinoline-3,4-diones and related compounds as anti-infective agents” (Achillion Pharmaceuticals, Inc., priority 2005, dated 2011).

A value given as a limit tells only on which side of the number the result lay.

The subject of one assay is S. aureus ATCC 29213. Description: Minimum Inhibitory Concentration (MIC) assay, S. aureus. The class given is cell-based. The note with it: Staphylococcus aureus, ATCC29213; broth microdilution; read-out: MIC against S. Aureus. The procedure:
(§1) The antimicrobial activity of the compounds of the invention may be evaluated by a number of methods, including the following visual minimum inhibitory concentration (MIC) assay. This assay determines the minimum concentration of compound required to inhibit growth of a bacterial strain.
(§2) Minimum Inhibitory Concentration (MIC) Assay
(§3) Whole-cell antibacterial activity is determined by broth microdilution using conditions recommended by the NCCLS (see National Committee for Clinical Laboratory Standards. 2001. Performance standards for antimicrobial susceptibility testing: 11th informational supplement. Vol. 21, no. 1, M100-S11. National Committee for Clinical Laboratory Standards, Wayne, Pa.). Test compounds are dissolved in DMSO and diluted 1:50 in Mueller-Hinton II broth (Becton-Dickinson) to produce a 256 μg/ml stock solution. In a 96-well microtiter plate, the compound solution is serially two-fold diluted in Mueller-Hinton II broth. After the compounds are diluted, a 50 μl aliquot of the test organism (˜1×10^6 cfu/mL) is added to each well of the microtiter plate. The final test concentrations ranges from 0.125-128 μg/mL. Inoculated plates are incubated in ambient air at 37° C. for 18 to 24 hours. The organisms selected for testing included laboratory strains S. aureus ATCC 29213 and E. coli ATCC 25922 (strains purchased from American Type Culture Collection, Manassas, Va.), S. aureus FQR700699, and Paeruginosa 27853. The minimum inhibitory concentration (MIC) is determined as the lowest concentration of compound that inhibited visible growth of the test organism.

The subject of a further assay is E. coli ATCC 25922. Briefly: Minimum Inhibitory Concentration (MIC) assay, E. coli. It counts as cell-based. Conditions: Escherichia coli, ATCC25922; broth microdilution; read-out: MIC against E. coli. As to the method:
as §1, §2, §3
For orientation: Dilution methods test growth across graded concentrations, often in twofold steps.

For orientation: MIC means the least concentration at which growth counts as inhibited. For `COc1c(N2CC[C@@H](CN)C2)ccc2c(=O)c3c(=O)[nH]sc3n(C3CC3)c12` [Compound 65, (S)-7-(3-(aminomethyl)-pyrrolidin-1-yl)-9-cyclopropyl-8-methoxyiso-thiazolo[5,4-b]quinoline-3,4(2H,9H)-dione], the MIC in the assay on S. aureus ATCC 29213 is at most 1 µg/mL.
On to `CCn1c2cc(N3CCNCC3)c(F)cc2c(=O)c2c(=O)[nH]sc21` [Compound 31, 9-ethyl-6-fluoro-7-(piperazin-1-yl)isothia-zolo[5,4-b]quinoline-3,4(2H,9H)-dione], for which the MIC with S. aureus ATCC 29213 and with E. coli ATCC 25922 was at most 1 µg/mL each time.
Consider `CCNC1CN(c2c(F)cc3c(=O)c4c(=O)[nH]sc4n(C4CC4)c3c2OC)C1` [Compound 106, 9-cyclopropyl-7-(3-(ethylamino)-azetidin-1-yl)-6-fluoro-8-methoxyiso-thiazolo[5,4-b]quinoline-3,4(2H,9H)-dione], for which the MIC in the assay on S. aureus ATCC 29213 and in the assay on E. coli ATCC 25922 was at most 1 µg/mL in each case.
Turning to `COc1c(N2C[C@H]3CCCN[C@H]3C2)ccc2c(=O)c3c(=O)[nH]sc3n(C3CC3)c12` [Compound 78, 9-cyclopropyl-8-methoxy-7-((4aR,7aR)octahydro-pyrrolo[3,4-b]pyridin-6-yl)isothia-zolo[5,4-b]quinoline-3,4(2H,9H)-dione], the MIC in the assay on S. aureus ATCC 29213 and in the assay with E. coli ATCC 25922 was at most 1 µg/mL throughout.
As for `COc1c(N2CC[C@@H](C(C)(C)N(C)C)C2)c(F)cc2c(=O)c3c(=O)[nH]sc3n(C3CC3)c12` [Compound 82, (R)-9-cyclo-propyl-7-(3-(2-(dimethyl-amino)propan-2-yl)pyrrolidin-1-yl)-6-fluoro-8-methoxyiso-thiazolo[5,4-b]quinoline-3,4(2H,9H)-dione], the MIC in the assay on S. aureus ATCC 29213 and in the assay on E. coli ATCC 25922 was at most 1 µg/mL in each case.
On to `O=c1[nH]sc2c1c(=O)c1cc(F)c(N3CCC4(CC3)OCCO4)cc1n2C1CC1` [Compound 39], for which the MIC in the assay with S. aureus ATCC 29213 and with E. coli ATCC 25922 was at most 1 µg/mL in each case.
For `COc1c(N2CC[C@@H](C(C)NC3CCCC3)C2)c(F)cc2c(=O)c3c(=O)[nH]sc3n(C3CC3)c12` (stereo partly drawn) [Compound 113, (R)-7-(3-(1-(cyclopentyl-amino)ethyl)pyrrolidin-1-yl)-9-cyclopropyl-6-fluoro-8-methoxyiso-thiazolo[5,4-b]quinoline-3,4(2H,9H)-dione], the MIC in the assay with S. aureus ATCC 29213 is at most 1 µg/mL.
Turning to `O=c1[nH]sc2c1c(=O)c1cc(F)c(N3CCCC3)cc1n2C1CC1` [Compound 24, 9-cyclopropyl-6-fluoro-7-(pyrrolidin-1-yl)isothia-zolo[5,4-b]quinoline-3,4(2H,9H)-dione], the MIC with S. aureus ATCC 29213 is at most 1 µg/mL.
`CC(=O)N1CCN(c2cc3c(cc2F)c(=O)c2c(=O)[nH]sc2n3C2CC2)CC1` [Compound 44, 7-(4-acetyl-piperazin-1-yl)-9-cyclo-propyl-6-fluoroiso-thiazolo[5,4-b]quinoline-3,4(2H,9H)-dione]: the MIC in the assay on S. aureus ATCC 29213 and with E. coli ATCC 25922 was at most 1 µg/mL each time.
For `COc1c(N2CC[C@@H](CNC3CC3)C2)ccc2c(=O)c3c(=O)[nH]sc3n(C3CC3)c12` [Compound 101, (S)-9-cyclo-propyl-7-(3-((cyclopropyl-amino)methyl)-pyrrolidin-1-yl)-8-methoxyiso-thiazolo[5,4-b]quinoline-3,4(2H,9H)-dione], the MIC with S. aureus ATCC 29213 and with E. coli ATCC 25922 was at most 1 µg/mL throughout.
Consider `COc1cc2c(=O)c3c(=O)[nH]sc3n(C3CC3)c2c(F)c1N1CCNCC1` [Compound 84, 9-cyclopropyl-8-fluoro-6-methoxy-7-(piperazin-1-yl)isothia-zolo[5,4-b]quinoline-3,4(2H,9H)-dione], for which the MIC in the assay on E. coli ATCC 25922 is at most 1 µg/mL.
Take `COc1cc2c(=O)c3c(=O)[nH]sc3n(C3CC3)c2c(F)c1N1CC[C@@H](CN)C1` [Compound 85, (S)-7-(3-(aminomethyl)-pyrrolidin-1-yl)-9-cyclo-propyl-8-fluoro-6-methoxyiso-thiazolo[5,4-b]quinoline-3,4(2H,9H)-dione]: the MIC in the assay with S. aureus ATCC 29213 and in the assay on E. coli ATCC 25922 was at most 1 µg/mL throughout.
With `CC[C@H](NC)[C@@H]1CCN(c2c(F)cc3c(=O)c4c(=O)[nH]sc4n(C4CC4)c3c2OC)C1` [Compound 91, 9-cyclopropyl-6-fluoro-8-methoxy-7-((R)-3-((S)-1-(methylamino)-propyl)pyrrolidin-1-yl)isothia-zolo[5,4-b]quinoline-3,4(2H,9H)-dione], the MIC in the assay with S. aureus ATCC 29213 was at most 1 µg/mL.
On to `CN[C@@H]1CCN(c2c(F)cc3c(=O)c4c(=O)[nH]sc4n(C4CC4)c3c2OC)C1` [Compound 98, (R)-9-cyclo-propyl-6-fluoro-8-methoxy-7-(3-(methylamino)-pyrrolidin-1-yl)isothia-zolo[5,4-b]quinoline-3,4(2H,9H)-dione], for which the MIC with S. aureus ATCC 29213 is at most 1 µg/mL.
Consider `CC(C)(C)OC(=O)N1CCN(c2cc3c(cc2F)c(=O)c2c(=O)[nH]sc2n3C2CC2)CC1` [Compound 26, tert-butyl 4-(9-cyclopropyl-6-fluoro-3,4-dioxo-2,3,4,9-tetrahydroiso-thiazolo[5,4-b]quinolin-7-yl)piperazine-1-carboxylate], for which the MIC in the assay on S. aureus ATCC 29213 and in the assay with E. coli ATCC 25922 was at most 1 µg/mL throughout.
Turning to `O=c1[nH]sc2c1c(=O)c1cc(F)c(N3CCN(CCN4CCOCC4)CC3)cc1n2C1CC1` [Compound 33, 9-cyclopropyl-6-fluoro-7-(4-(2-morpho-linoethyl)piperazin-1-yl)isothia-zolo[5,4-b]quinoline-3,4(2H,9H)-dione], the MIC in the assay with S. aureus ATCC 29213 and with E. coli ATCC 25922 was at most 1 µg/mL in each case.
Consider `COc1c(N2CC[C@H](C(C)(C)N)C2)ccc2c(=O)c3c(=O)[nH]sc3n(C3CC3)c12` [Compound 60, (S)-7-(3-(2-aminopropan-2-yl)pyrrolidin-1-yl)-9-cyclopropyl-8-methoxyiso-thiazolo[5,4-b]quinoline-3,4(2H,9H)-dione], for which, in the assay on S. aureus ATCC 29213, the MIC was at most 1 µg/mL.
Consider `CC1CN(c2cc3c(cc2F)c(=O)c2c(=O)[nH]sc2n3C2CC2)CCN1` (stereo not shown) [Compound 17, 9-cyclopropyl-6-fluoro-7-(3-methyl-piperazin-1-yl)isothia-zolo[5,4-b]quinoline-3,4(2H,9H)-dione], for which the MIC in the assay on S. aureus ATCC 29213 and with E. coli ATCC 25922 was at most 1 µg/mL each time.
With `COc1c(N2CC(N)C2)c(F)cc2c(=O)c3c(=O)[nH]sc3n(C3CC3)c12` [Compound 105, 7-(3-amino-azetidin-1-yl)-9-cyclopropyl-6-fluoro-8-methoxyiso-thiazolo[5,4-b]quinoline-3,4(2H,9H)-dione], the MIC in the assay with S. aureus ATCC 29213 and in the assay with E. coli ATCC 25922 was at most 1 µg/mL in each case.
In the case of `COc1c(N2CC[C@@H](N)C2)c(F)cc2c(=O)c3c(=O)[nH]sc3n(C3CC3)c12` [Compound 96, (R)-7-(3-amino-pyrrolidin-1-yl)-9-cyclopropyl-6-fluoro-8-methoxyiso-thiazolo[5,4-b]quinoline-3,4(2H,9H)-dione], in the assay with S. aureus ATCC 29213, the MIC was at most 1 µg/mL.
The same measure, in the same setting: the result for `CN(C(=O)OC(C)(C)C)C1CCN(c2cc3c(cc2F)c(=O)c2c(=O)[nH]sc2n3C2CC2)C1` (stereo not shown) [Compound 25, tert-butyl 1-(9-cyclopropyl-6-fluoro-3,4-dioxo-2,3,4,9-tetrahydroiso-thiazolo[5,4-b]quinolin-7-yl)pyrrolidin-3-yl(methyl) carbamate] reads at most 1 µg/mL; that for `CCn1c2s[nH]c(=O)c2c(=O)c2cc(F)c(N3CCNCC3)c(OC)c21` [Compound 62, 9-ethyl-6-fluoro-8-methoxy-7-(piperazin-1-yl)isothia-zolo[5,4-b]quinoline-3,4(2H,9H)-dione], at most 1 µg/mL.
On the same count and under the same terms, the result for `COc1c(N2CCC(N)(CO)C2)c(F)cc2c(=O)c3c(=O)[nH]sc3n(C3CC3)c12` (stereo not shown) [Compound 109, 7-(3-amino-3-(hydroxy-methyl)-pyrrolidin-1-yl)-9-cyclo-propyl-6-fluoro-8-methoxyiso-thiazolo[5,4-b]quinoline-3,4(2H,9H)-dione] reads at most 1 µg/mL; that for `COc1c(N2CC[C@@H](N)C2)ccc2c(=O)c3c(=O)[nH]sc3n(C3CC3)c12` [Compound 97, (R)-7-(3-amino-pyrrolidin-1-yl)-9-cyclopropyl-8-methoxyiso-thiazolo[5,4-b]quinoline-3,4(2H,9H)-dione], at most 1 µg/mL; that for `CN[C@@H]1CCN(c2ccc3c(=O)c4c(=O)[nH]sc4n(C4CC4)c3c2OC)C1` [Compound 99, (R)-9-cyclo-propyl-8-methoxy-7-(3-(methyl-amino)-pyrrolidin-1-yl)iso-thiazolo[5,4-b]quinoline-3,4(2H,9H)-dione], at most 1 µg/mL.
Same read-out and setting: to `COc1c(N2C[C@@H]3CCCN[C@@H]3C2)c(F)cc2c(=O)c3c(=O)[nH]sc3n(C3CC3)c12` [Compound 69, 9-cyclopropyl-6-fluoro-8-methoxy-7-((4aS,7aS)-octahydro-pyrrolo[3,4-b]pyridin-6-yl)isothia-zolo[5,4-b]quinoline-3,4(2H,9H)-dione] belongs at most 1 µg/mL.
With `COc1c(N2CC[C@@H]([C@@H](C)N)C2)ccc2c(=O)c3c(=O)[nH]sc3n(C3CC3)c12` [Compound 110, 7-((R)-3-((R)-1-aminoethyl)-pyrrolidin-1-yl)-9-cyclo-propyl-8-methoxyiso-thiazolo[5,4-b]quinoline-3,4(2H,9H)-dione], the MIC in the assay on S. aureus ATCC 29213 was at most 1 µg/mL.
Same read-out and setting: the result for `O=c1[nH]sc2c1c(=O)c1cc(F)c(N3CCCCC3)cc1n2C1CC1` [Compound 23, 9-cyclopropyl-6-fluoro-7-(piperidin-1-yl)isothia-zolo[5,4-b]quinoline-3,4(2H,9H)-dione] reads at most 1 µg/mL.
